Common to all, as to format: functional, cell-based
Data set [1] concerns the target T1, Solute carrier organic anion transporter family member 1A3 (Rattus norvegicus, UniProt P70502).
T1 sequence (P70502 whole entry): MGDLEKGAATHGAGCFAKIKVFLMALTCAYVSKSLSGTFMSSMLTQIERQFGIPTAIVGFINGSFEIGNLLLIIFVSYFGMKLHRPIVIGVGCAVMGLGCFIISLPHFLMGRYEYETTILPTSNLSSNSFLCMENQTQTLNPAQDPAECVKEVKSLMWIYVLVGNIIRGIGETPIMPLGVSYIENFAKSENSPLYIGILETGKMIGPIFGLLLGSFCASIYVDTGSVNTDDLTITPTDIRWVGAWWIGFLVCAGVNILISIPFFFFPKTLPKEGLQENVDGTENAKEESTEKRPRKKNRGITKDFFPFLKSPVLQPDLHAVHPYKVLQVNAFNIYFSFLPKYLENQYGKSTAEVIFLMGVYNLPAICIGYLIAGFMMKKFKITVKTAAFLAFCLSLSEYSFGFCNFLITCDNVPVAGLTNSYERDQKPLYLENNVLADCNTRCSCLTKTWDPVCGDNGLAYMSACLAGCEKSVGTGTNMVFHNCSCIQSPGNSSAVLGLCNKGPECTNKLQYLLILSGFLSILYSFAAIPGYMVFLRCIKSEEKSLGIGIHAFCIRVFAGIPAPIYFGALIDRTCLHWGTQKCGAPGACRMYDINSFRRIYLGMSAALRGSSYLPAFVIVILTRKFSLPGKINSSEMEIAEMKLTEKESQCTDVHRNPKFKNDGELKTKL
The data set is described as follows: TP_TRANSPORTER: uptake in Xenopus laevis oocytes. The conditions noted are these: oocyte.

Data set [2] has as its target T1, Solute carrier organic anion transporter family member 1A3. Put plainly: TP_TRANSPORTER: inhibition of MTX uptake (MTX: 0.01 uM, PAH: 100 uM) in OAT-K1-expressing MDCK cells. Conditions: dog.
Substrate in data set [3]: CN(Cc1cnc2nc(N)nc(N)c2n1)c1ccc(C(=O)N[C@@H](CCC(=O)O)C(=O)O)cc1
Put plainly: TP_TRANSPORTER: uptake in OAT-K1-expressing MDCK cells.

For the molecule `Nc1ccc(C(=O)NCC(=O)O)cc1` [AMINOHIPPURIC ACID], the figures for the Activity entry in data set [1] and in data set [2] were “is not a substrate [-]” and “inhibitor [(at a rough estimate) 55 % of control]”, respectively.

B1: Solute carrier organic anion transporter family member 1A3 (Rattus norvegicus) (protein)
chain: T1 sequence (P70502 whole entry)
As for B1, in data set [3], the Km came to 2.1 µM.

One may read the Km as the substrate concentration at which the rate is half of its maximum.

The values above are taken from ChEMBL document CHEMBL2074116, “Functional analysis of rat renal organic anion transporter OAT-K1: bidirectional methotrexate transport in apical membrane” (FEBS Lett, 1999).
